Results published in PubChem BioAssay (NCI).
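GI50 = concentration required for 50% inhibition of growth. TGI: concentration producing complete growth inhibition.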

Legend:
Experiment in all cases: NCI-60 cell line screen, 384-well format
786-0 renal = system: 786-0 renal
A498 renal = system: A498 renal
A549 NSCLC = system: A549 NSCLC
ACHN renal = system: ACHN renal
BT-549 breast = system: BT-549 breast
CAKI-1 renal = system: CAKI-1 renal
CCRF-CEM leukemia = system: CCRF-CEM leukemia
COLO 205 colon = system: COLO 205 colon
DU-145 prostate = system: DU-145 prostate
HCC-2998 colon = system: HCC-2998 colon
HCT-116 colon = system: HCT-116 colon
HCT-15 colon = system: HCT-15 colon
HL-60(TB) leukemia = system: HL-60(TB) leukemia
HOP-62 NSCLC = system: HOP-62 NSCLC
HOP-92 NSCLC = system: HOP-92 NSCLC
HT29 colon = system: HT29 colon
IGROV1 ovarian = system: IGROV1 ovarian
K-562 leukemia = system: K-562 leukemia
KM12 colon = system: KM12 colon
LOX IMVI melanoma = system: LOX IMVI melanoma
M14 melanoma = system: M14 melanoma
MALME-3M melanoma = system: MALME-3M melanoma
MCF7 breast = system: MCF7 breast
MDA-MB-231 breast = system: MDA-MB-231 breast
MDA-MB-435 melanoma = system: MDA-MB-435 melanoma
MDA-MB-468 breast = system: MDA-MB-468 breast
MOLT-4 leukemia = system: MOLT-4 leukemia
NCI-H226 lung = system: NCI-H226 lung
NCI-H23 lung = system: NCI-H23 lung
NCI-H322M lung = system: NCI-H322M lung
NCI-H460 NSCLC = system: NCI-H460 NSCLC
NCI-H522 lung = system: NCI-H522 lung
NCI/ADR-RES ovarian = system: NCI/ADR-RES ovarian
OVCAR-3 ovarian = system: OVCAR-3 ovarian
OVCAR-4 ovarian = system: OVCAR-4 ovarian
OVCAR-5 ovarian = system: OVCAR-5 ovarian
OVCAR-8 ovarian = system: OVCAR-8 ovarian
PC-3 prostate = system: PC-3 prostate
RPMI-8226 leukemia = system: RPMI-8226 leukemia
RXF 393 renal = system: RXF 393 renal
SF-268 CNS = system: SF-268 CNS
SF-295 CNS = system: SF-295 CNS
SF-539 CNS = system: SF-539 CNS
SK-MEL-2 melanoma = system: SK-MEL-2 melanoma
SK-MEL-28 melanoma = system: SK-MEL-28 melanoma
SK-MEL-5 melanoma = system: SK-MEL-5 melanoma
SK-OV-3 ovarian = system: SK-OV-3 ovarian
SN12C renal = system: SN12C renal
SNB-19 CNS = system: SNB-19 CNS
SR leukemia = system: SR leukemia
SW-620 colon = system: SW-620 colon
T-47D breast = system: T-47D breast
TK-10 renal = system: TK-10 renal
U251 glioblastoma = system: U251 glioblastoma
UACC-257 melanoma = system: UACC-257 melanoma
UACC-62 melanoma = system: UACC-62 melanoma
UO-31 renal = system: UO-31 renal

SMILES: c1ccc(Cn2c(-c3ccc(OC[C@H](C4CCNCC4)n4c(-c5ccccc5)nc5ccccc54)cc3)nc3ccccc32)cc1
- GI50 ([…]-0 renal): 1730 nM
- TGI (786-0 renal): 3120 nM
- GI50 (A498 renal): 1700 nM
- TGI (A498 renal): 3080 nM
- GI50 (A549 NSCLC): 1840 nM
- TGI (A549 NSCLC): 3260 nM
- GI50 (ACHN renal): 1840 nM
- TGI (ACHN renal): 3250 nM
- GI50 (BT-549 breast): 1700 nM
- TGI (BT-549 breast): 3080 nM
- GI50 (CAKI-1 renal): 1840 nM
- TGI (CAKI-1 renal): 3240 nM
- GI50 (CCRF-CEM leukemia): 1260 nM
- TGI (CCRF-CEM leukemia): 2520 nM
- GI50 (COLO 205 colon): 1820 nM
- TGI (COLO 205 colon): 3230 nM
- GI50 (DU-145 prostate): 1860 nM
- TGI (DU-145 prostate): 3280 nM
- GI50 (HCC-2998 colon): 1360 nM
- TGI (HCC-2998 colon): 2650 nM
- GI50 (HCT-116 colon): 1450 nM
- TGI (HCT-116 colon): 2780 nM
- GI50 (HCT-15 colon): 1860 nM
- TGI (HCT-15 colon): 3280 nM
- GI50 (HL-60(TB) leukemia): 1790 nM
- TGI (HL-60(TB) leukemia): 3180 nM
- GI50 (HOP-62 NSCLC): 2020 nM
- TGI (HOP-62 NSCLC): 3460 nM
- GI50 (HOP-92 NSCLC): 1630 nM
- TGI (HOP-92 NSCLC): 2990 nM
- GI50 (HT29 colon): 1660 nM
- TGI (HT29 colon): 3040 nM
- GI50 (IGROV1 ovarian): 1650 nM
- TGI (IGROV1 ovarian): 3020 nM
- GI50 (K-562 leukemia): 1500 nM
- TGI (K-562 leukemia): 2830 nM
- GI50 (KM12 colon): 1800 nM
- TGI (KM12 colon): 3210 nM
- GI50 (LOX IMVI melanoma): 2330 nM
- TGI (LOX IMVI melanoma): 3800 nM
- GI50 (M14 melanoma): 1790 nM
- TGI (M14 melanoma): 3180 nM
- GI50 (MALME-3M melanoma): 1790 nM
- TGI (MALME-3M melanoma): 3180 nM
- GI50 (MCF7 breast): 1610 nM
- TGI (MCF7 breast): 2980 nM
- GI50 (MDA-MB-231 breast): 1890 nM
- TGI (MDA-MB-231 breast): 3300 nM
- GI50 (MDA-MB-435 melanoma): 2000 nM
- TGI (MDA-MB-435 melanoma): 3430 nM
- GI50 (MDA-MB-468 breast): 1970 nM
- TGI (MDA-MB-468 breast): 3390 nM
- GI50 (MOLT-4 leukemia): 1160 nM
- TGI (MOLT-4 leukemia): 2410 nM
- GI50 (NCI-H226 lung): 1770 nM
- TGI (NCI-H226 lung): 3160 nM
- GI50 (NCI-H23 lung): 2230 nM
- TGI (NCI-H23 lung): 3680 nM
- GI50 (NCI-H322M lung): 1690 nM
- TGI (NCI-H322M lung): 3060 nM
- GI50 (NCI-H460 NSCLC): 1700 nM
- TGI (NCI-H460 NSCLC): 3120 nM
- GI50 (NCI-H522 lung): 1890 nM
- TGI (NCI-H522 lung): 3290 nM
- GI50 (NCI/ADR-RES ovarian): 2400 nM
- TGI (NCI/ADR-RES ovarian): 5200 nM
- GI50 (OVCAR-3 ovarian): 1810 nM
- TGI (OVCAR-3 ovarian): 3220 nM
- GI50 (OVCAR-4 ovarian): 1510 nM
- TGI (OVCAR-4 ovarian): 2850 nM
- GI50 (OVCAR-5 ovarian): 2030 nM
- TGI (OVCAR-5 ovarian): 3470 nM
- GI50 (OVCAR-8 ovarian): 1810 nM
- TGI (OVCAR-8 ovarian): 3220 nM
- GI50 (PC-3 prostate): 1830 nM
- TGI (PC-3 prostate): 3250 nM
- GI50 (RPMI-8226 leukemia): 971 nM
- TGI (RPMI-8226 leukemia): 2140 nM
- GI50 (RXF 393 renal): 1580 nM
- TGI (RXF 393 renal): 2920 nM
- GI50 (SF-268 CNS): 1800 nM
- TGI (SF-268 CNS): 3200 nM
- GI50 (SF-295 CNS): 1860 nM
- TGI (SF-295 CNS): 3270 nM
- GI50 (SF-539 CNS): 1660 nM
- TGI (SF-539 CNS): 3030 nM
- GI50 (SK-MEL-2 melanoma): 1510 nM
- TGI (SK-MEL-2 melanoma): 2840 nM
- GI50 (SK-MEL-28 melanoma): 1830 nM
- TGI (SK-MEL-28 melanoma): 3230 nM
- GI50 (SK-MEL-5 melanoma): 1820 nM
- TGI (SK-MEL-5 melanoma): 3220 nM
- GI50 (SK-OV-3 ovarian): 1680 nM
- TGI (SK-OV-3 ovarian): 3060 nM
- GI50 (SN12C renal): 1820 nM
- TGI (SN12C renal): 3220 nM
- GI50 (SNB-19 CNS): 1970 nM
- TGI (SNB-19 CNS): 3400 nM
- GI50 (SR leukemia): 1170 nM
- TGI (SR leukemia): 2410 nM
- GI50 (SW-620 colon): 1740 nM
- TGI (SW-620 colon): 3140 nM
- GI50 (T-47D breast): 1610 nM
- TGI (T-47D breast): 2970 nM
- GI50 (TK-10 renal): 1850 nM
- TGI (TK-10 renal): 3250 nM
- GI50 (U251 glioblastoma): 1590 nM
- TGI (U251 glioblastoma): 2960 nM
- GI50 (UACC-257 melanoma): 1270 nM
- TGI (UACC-257 melanoma): 2530 nM
- GI50 (UACC-62 melanoma): 1890 nM
- TGI (UACC-62 melanoma): 3300 nM
- GI50 (UO-31 renal): 1870 nM
- TGI (UO-31 renal): 3270 nM
